Where two headings read alike, the source gives them in different places.
Legend:
[1] = tested on: diet induced obese (DIO) mouse; assay: Diet Induced Obesity (DIO) mouse model; assay type: in vivo, C57BL/6 mice; conditions: for plasma insulin: SRT1933 100 mg/kg, rosiglitazone 5 mg/kg once daily oral
Experimental: The vehicle used was 2% HPMC −0.2% DOSS. Individual mouse body weights were measured twice weekly. Every 2 weeks throughout the study, mice from each group were bled via the tail vein for determination of blood glucose and blood plasma insulin. After 1, 3 and 5 weeks of dosing, a fasted blood glucose measure was taken and after 5 weeks of treatment an IPGTT was conducted on all mice from each of the groups. After 9 weeks of treatment, an ITT was conducted and a rectal body temperature was taken on all mice from each of the groups. Statistical analysis was completed using the JMP program (Version 6). Data were analyzed by a one way ANOVA with comparison to control using a Dunnett's Test. A p value <0.05 indicated a significant difference between groups.

Human SIRT1 = biological target: T1, Human SIRT1 (Homo sapiens, UniProt Q96EB6); assay: SIRT1 mass spectrometry deacetylase assay; assay type: biochemical
T1 construct: hexa-histidine (N); made in house; host or cells: E. coli BL21(DE3)Star
T1 sequence (Q96EB6 1-747): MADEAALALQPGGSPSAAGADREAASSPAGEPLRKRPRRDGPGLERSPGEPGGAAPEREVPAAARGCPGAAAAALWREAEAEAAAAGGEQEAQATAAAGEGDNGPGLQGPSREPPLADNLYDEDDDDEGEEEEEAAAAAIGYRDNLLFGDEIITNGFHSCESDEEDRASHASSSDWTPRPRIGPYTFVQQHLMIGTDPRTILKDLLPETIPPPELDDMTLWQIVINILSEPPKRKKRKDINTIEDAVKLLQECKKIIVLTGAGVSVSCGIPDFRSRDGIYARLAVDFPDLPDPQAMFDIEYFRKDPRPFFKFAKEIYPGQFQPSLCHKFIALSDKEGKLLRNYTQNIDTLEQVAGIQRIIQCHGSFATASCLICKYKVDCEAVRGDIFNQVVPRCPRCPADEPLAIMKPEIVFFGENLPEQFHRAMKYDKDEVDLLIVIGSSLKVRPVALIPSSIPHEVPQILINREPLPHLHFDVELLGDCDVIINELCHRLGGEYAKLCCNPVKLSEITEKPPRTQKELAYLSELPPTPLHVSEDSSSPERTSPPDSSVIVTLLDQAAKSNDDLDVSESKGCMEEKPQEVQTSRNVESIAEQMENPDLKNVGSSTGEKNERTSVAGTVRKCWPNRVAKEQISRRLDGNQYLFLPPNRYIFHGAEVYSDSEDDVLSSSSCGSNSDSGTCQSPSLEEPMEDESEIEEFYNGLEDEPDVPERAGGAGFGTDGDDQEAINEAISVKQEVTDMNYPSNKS
Source text: The following example describes methods for the identification and characterization of Sirt1 activators. Human SIRT1 is expressed from the pSIRT1FL vector which places expression under the control of the T7 promoter. The protein was expressed in E. coli BL21(DE3)Star as an N-terminal fusion to a hexa-histidine affinity tag. The expressed protein was purified by Ni^2+-chelate chromatography. The eluted protein was then purified by size exclusion chromatography followed by ion exchange. The resulting protein was typically >95% pure as assessed by SDS-PAGE analysis. The mass spectrometry based assay utilizes a peptide having 20 amino acid residues as follows: Ac-Glu-Glu-Lys(Biotin)-[…]Ac)-Nle-Ser-Thr-Glu-Gly-Lys(5TMR)-Glu-Glu-NH2 (SEQ ID NO:2) wherein K(Ac) is an acetylated lysine residue and Nle is a norleucine. The peptide is labeled with the fluorophore 5TMR (excitation 540 nm/emission 580 nm) at the C-terminus for use in the FP assay described above. The sequence of the peptide substrate is based on p53 with several modifications.
The mass spectrometry assay was conducted as follows: 0.5 μM peptide substrate and 120 μM βNAD^+ was incubated with 10 nM SIRT1 for 25 minutes at 25° C. in a reaction buffer (50 mM Tris-acetate pH 8, 137 mM NaCl, 2.7 mM KCl, 1 mM MgCl2, 5 mM DTT, 0.05% BSA). Test compounds were added to the reaction or vehicle control, DMSO. After the incubation with SIRT1, 10% formic acid was added to stop the reaction. Determination of the mass of the substrate peptide allows for precise determination of the degree of acetylation (i.e. starting material) as compared to deacetylated peptide (product).
The activity of an exemplary compound against SIRT1 enzyme was profiled using a mass spectrometry readout. In this assay the conversion of acetylated peptide substrate to deacetylated peptide product is tracked by monitoring the change in mass ([…]) upon loss of the acetyl group. […]

[2] = tested on: citrate synthase activity (mitochondrial capacity); assay: Citrate synthase activity in tissues of treated DIO mice; assay type: in vivo, C57BL/6 mice
Experimental: Citrate synthase (CS) activity in skeletal muscle (gastrocnemius) and white adipose tissue (epididymal) was determined after 11 weeks of treatment using the method described by Srere (Citrate synthase, Methods Enzymol. 1969, 13: 3-5) and Moyes et al. (Moyes CD, Mathieu-Costello 0A, Tsuchiya N, Filbum C, and Hansford RG. Mitochondrial biogenesis during cellular differentiation. Am. J. Physiol. 1997, 272 (Cell Physiol. 41): C1345-C1351.
Citrate Synthase is an enzyme of the Krebs cycle (also called […], TCA, or citric acid) cycle whose maximal activity (capacity) reflects mitochondrial oxidative capacity of the sample (Holloszy et al. 1970, Williams et al. 1986, Hood et al. 1989). […] Irrespective of this latter remark, changes in citrate synthase activity over time in a given individual reflect changes in tissue mitochondrial oxidative capacity. The five mice best representing the mean fasting blood glucose level of each group (DIO Vehicle and DIO SRT1933) were selected for this analysis. The tissues were lyzed in lx Extraction Buffer (20 mM N-2-hydroxyethylpiperazine-N′-2-2ethanesulfonic acid (HEPES), pH 7.2, 0.1% Triton X-100 and 1 mM EDTA with a polytron tissue homogenizer (OMNI International GLH) for 30 seconds at maximum speed (setting 6) on ice. A low-speed (13,000 rpm, microfuge) centrifugation step was then used to pellet big cell debris. The supernatant was used to assess citrate synthase activity. The samples are freeze-thawed 2 times to break the mitochondrial membrane and allow access to citrate synthase. Sample protein concentrations were determined according to the supplier's instructions, with Bio-Rad Protein Assay Dye Reagent Concentrate (cat#500-0006, […]) with Protein Standard I, bovine gamma globulin (cat#500-0005, […]) as standard. The citrate synthase activity assay was performed in a final total volume of 300 μl with 100 μg of protein per sample, measured in triplicate.
Citrate synthase catalyzes the reaction between acetyl coenzyme A (acetyl CoA) and oxaloacetic acid (OAA) to form citric acid. […]

[3] = tested on: diet induced obese (DIO) mouse; assay: Diet Induced Obesity (DIO) mouse model; assay type: in vivo, C57BL/6 mice; conditions: DIO mice
[4] = Plasma exposure after oral gavage in mice; assay type: in vivo, C57BL/6 mice; conditions: 100 mg/kg once daily by oral gavage, each day
Experimental: The following example describes the in vivo effects of a novel SIRT1 activator. The compound was administered via oral gavage at the doses indicated in FIG. 2a in […] male mice, 18-22 grams (Wilmington, Mass. Charles River Labs), 3 mice per group and blood plasma was collected at 5, 30, 120 and 360 minute time points. The compound was administered in 2% HPMC+0.2% DOSS. Mice were sacrificed at proper time points using CO2 overdose (place in CO2 chamber 40 seconds before time point). Blood was collected in microtainer blood tubes with Lithium Heparin and plasma separator and frozen plasma was sent to Charles River Labs (CRL) for analysis. To determine oral bioavalability, the compound was administered into the tail vein at 0.1, 0.3 and 1.0 mg/kg doses in C57BL/6 male mice, 18-22 grams (Wilmington, Mass. Charles River Labs), 3 mice per group and blood plasma was collected at 5, 30, 120 and 360 minute time points. Compounds were administered in 10% ethanol/ 40% Polyethylene glycol/50% H2O for IV studies. Mice were sacrificed at proper time points using CO2 overdose (place in CO2 chamber 40 seconds before time point). Blood was collected and analyzed as described above.

SMILES | plasma insulin ([1]; DIO mice) | Emax (Human SIRT1; at the highest doses of compound tested, read-out: maximum activation) | EC1.5 (Human SIRT1; read-out: EC1.5 (concentration of compound required to increase enzyme activity by 50%), mass spectrometry readout, 10 nM SIRT1, 0.5 μM peptide substrate, 120 μM βNAD+) | EC1.5 (Human SIRT1; read-out: EC1.5, as quoted in legend of FIG. 2a) | increase in citrate synthase activity ([2]; gastrocnemius muscle, DIO mice, after 11 weeks of treatment) | citrate synthase activity in adipose tissue ([2]; n=5, after 11 weeks (FIG. 2g)) | mitochondrial capacity (citrate synthase activity) in skeletal muscle ([2]; n=5, after 11 weeks (FIG. 2g)) | glucose tolerance in an OGTT relative to vehicle [3] | glucose excursion in OGTT (AUC) ([3]; after 5 weeks of treatment, SRT1933 100 mg/kg, rosiglitazone 5 mg/kg once daily oral) | nonfasting blood glucose levels ([1]; DIO mice, 100 mg/kg once daily oral, by week 2, maintained over 10 week period) | insulin sensitivity relative to vehicle assessed by ITT ([1]; DIO mice, ITT after 9 weeks of treatment) | fasting blood glucose levels ([1]; DIO mice, once daily oral dosing) | body temperature ([1]; SRT1933 treated groups (FIG. 2f)) | lowering of core body temperature ([1]; both DIO mice and normal chow fed mice) | effect on insulin levels ([1]; mice fed a normal chow diet, over the course of the study) | duration of exposure above EC1.5 [4]
CN(CCOc1ccc(CC2SC(=O)NC2=O)cc1)c1ccccn1 (centres unmarked) [rosiglitazone, reference compound] | 0.9 ± 0.1 ng/mL | – | – | – | – | – | – | – | – | – | – | – | – | – | – | –
O=C(Nc1ccccc1-c1cn2c(CN3CCNCC3)csc2n1)c1cnc2ccccc2n1 [SRT1933] | 2.1 ± 0.1 ng/mL | > 900% | 160 nM | 440 nM | 15% | trend | significant increase | improved glucose tolerance | 462 ± 25 mg·h/dL | normalized | improvement in insulin sensitivity | normalized | decreased | ~1 °C | did not have a significant effect | at least 16 hours

From patent publication US20080249103A1, “Sirtuin polymorphisms and methods of use thereof” (Sirtris Pharmaceuticals, Inc., priority 2006, published 2008)
